Laboratory results: US11053251B2, “GPR35 modulators” (Prometheus Biosciences, Inc., priority 2019, dated 2021)
pEC50: −log10 of the molar value.

How the values were obtained:
Human GPR35 [1] = target: Human GPR35 (Homo sapiens, UniProt Q9HC97); assay: Beta-Arrestin Assay (Tango U2OS cells, LiveBLAzer-FRET B/G); assay type: cell-based; conditions: Human GPR35 expressing Tango U2OS cells, 5 hours treatment
Protocol: Human GPR35 expressing Tango U2OS cells were plated in 384-well format in clear bottom plates at a cell density of 10,000 cells/well and allowed to grow overnight. The next day, cells were treated with serially diluted test compounds for 5 hours. LiveBLAzer-FRET B/G (CCF4-AM) detection reagents were then added and cells were allowed to incubate for 2 hours before reading plates on a BioTek Cytation 5 plate reader. Zaprinast was used as a positive control for dose-response curves. In order to determine EC50 values, data were fit to a four-parameter dose-response curve.

Human GPR35 [2] = target: Human GPR35 (Homo sapiens, UniProt Q9HC97, S294R); assay: Alternative Beta-Arrestin Assay (JumpIn 294R Tango U2OS cells, LiveBLAzer-FRET B/G); assay type: cell-based; conditions: Human GPR35 expressing JumpIn 294R Tango U2OS cells, 5 hours treatment
In short: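 Beta-arrestin recruitment measured as FRET ratio change using CCF4-AM loading for 2 h, following 5-hour compound treatment of GPR35 (S294R) JumpIn Tango U2OS cells. Zaprinast served as positive control; EC50 values from four-parameter dose-response fits.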

Chain of Human GPR35 (Homo sapiens, UniProt Q9HC97) (Q9HC97 whole entry): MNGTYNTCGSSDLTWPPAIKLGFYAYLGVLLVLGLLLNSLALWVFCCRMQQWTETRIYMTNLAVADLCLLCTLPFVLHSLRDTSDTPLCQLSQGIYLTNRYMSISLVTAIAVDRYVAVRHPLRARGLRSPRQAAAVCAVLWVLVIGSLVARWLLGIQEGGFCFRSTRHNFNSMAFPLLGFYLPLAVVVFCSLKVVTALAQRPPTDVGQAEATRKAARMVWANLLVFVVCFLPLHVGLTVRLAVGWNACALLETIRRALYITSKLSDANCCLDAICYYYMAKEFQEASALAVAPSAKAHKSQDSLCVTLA
Chain of Human GPR35 (Homo sapiens, UniProt Q9HC97, S294R) (Q9HC97 whole entry S294R): as the sequence (Q9HC97 whole entry) above, with S294R counted along it

pEC50 (Human GPR35 [1])	pEC50 (Human GPR35 [2])	Structure (SMILES)
≥ 5.00	≥ 5.00	CCOc1cc(-c2ccccc2C(=O)OC)ccc1-c1nc2[nH]nnc2c(=O)[nH]1 [Compound 106, Methyl 3′-ethoxy-4′-(7-oxo-6,7-dihydro-3H-[1,2,3]triazolo[4,5-d]pyrimidin-5-yl)-[1,1′-biphenyl]-2-carboxylate]
≥ 5.00	≥ 5.00	CCOc1cc(-c2cccc(C(=O)OC)c2)ccc1-c1nc2[nH]nnc2c(=O)[nH]1 [Compound 107, Methyl 3′-ethoxy-4′-(7-oxo-6,7-dihydro-3H-[1,2,3]triazolo[4,5-d]pyrimidin-5-yl)-[1,1′-biphenyl]-3-carboxylate]
≥ 5.00	≥ 5.00	CCOc1cc(-c2ccc(C(=O)OC)cc2)ccc1-c1nc2[nH]nnc2c(=O)[nH]1 [Compound 108, Methyl 3′-ethoxy-4′-(7-oxo-6,7-dihydro-3H-[1,2,3]triazolo[4,5-d]pyrimidin-5-yl)-[1,1′-biphenyl]-4-carboxylate]
≥ 5.00	4.30 to 5.00	CCOc1cc(-c2ccccc2C(=O)O)ccc1-c1nc2[nH]nnc2c(=O)[nH]1 [Compound 109, 3′-Ethoxy-4′-(7-oxo-6,7-dihydro-3H-[1,2,3]triazolo[4,5-d]pyrimidin-5-yl)-[1,1′-biphenyl]-2-carboxylic acid]
≥ 5.00	≥ 5.00	CCOc1cc(-c2cccc(C(=O)O)c2)ccc1-c1nc2[nH]nnc2c(=O)[nH]1 [Compound 110, 3′-Ethoxy-4′-(7-oxo-6,7-dihydro-3H-[1,2,3]triazolo[4,5-d]pyrimidin-5-yl)-[1,1′-biphenyl]-3-carboxylic acid]
≥ 5.00	≥ 5.00	CCOc1cc(-c2ccc(C(=O)O)cc2)ccc1-c1nc2[nH]nnc2c(=O)[nH]1 [Compound 111, 3′-Ethoxy-4′-(7-oxo-6,7-dihydro-3H-[1,2,3]triazolo[4,5-d]pyrimidin-5-yl)-[1,1′-biphenyl]-4-carboxylic acid]
≥ 5.00	≥ 5.00	CCOc1cc(-c2cncc(C(=O)OC)c2)ccc1-c1nc2[nH]nnc2c(=O)[nH]1 [Compound 112, Methyl 5-(3-ethoxy-4-(7-oxo-6,7-dihydro-3H-[1,2,3]triazolo[4,5-d]pyrimidin-5-yl)phenyl)nicotinate]
≥ 5.00	≥ 5.00	CCOc1cc(-c2cncc(C(=O)O)c2)ccc1-c1nc2[nH]nnc2c(=O)[nH]1 [Compound 113, 5-(3-Ethoxy-4-(7-oxo-6,7-dihydro-3H-[1,2,3]triazolo[4,5-d]pyrimidin-5-yl)phenyl)nicotinic acid]
≥ 5.00	≥ 5.00	CCOc1cc(-c2ccc(CC(=O)OC)cc2)ccc1-c1nc2[nH]nnc2c(=O)[nH]1 [Compound 114, Methyl 2-(3′-ethoxy-4′-(7-oxo-6,7-dihydro-3H-[1,2,3]triazolo[4,5-d]pyrimidin-5-yl)-[1,1′-biphenyl]-4-yl)acetate]
≥ 5.00	≥ 5.00	CCOc1cc(-c2ccc(CC(=O)O)cc2)ccc1-c1nc2[nH]nnc2c(=O)[nH]1 [Compound 115, 2-(3′-Ethoxy-4′-(7-oxo-6,7-dihydro-3H-[1,2,3]triazolo[4,5-d]pyrimidin-5-yl)-[1,1′-biphenyl]-4-yl)acetic acid]
≥ 5.00	≥ 5.00	CCOc1cc(-c2ccc(C(=O)OC)s2)ccc1-c1nc2[nH]nnc2c(=O)[nH]1 [Compound 116, Methyl 5-(3-ethoxy-4-(7-oxo-6,7-dihydro-3H-[1,2,3]triazolo[4,5-d]pyrimidin-5-yl)phenyl)thiophene-2-carboxylate]
≥ 5.00	≥ 5.00	CCOc1cc(-c2ccc(C(=O)O)s2)ccc1-c1nc2[nH]nnc2c(=O)[nH]1 [Compound 117, 5-(3-Ethoxy-4-(7-oxo-6,7-dihydro-3H-[1,2,3]triazolo[4,5-d]pyrimidin-5-yl)phenyl)thiophene-2-carboxylic acid]
≥ 5.00	≥ 5.00	CCOc1cc(-c2ccccc2CC(=O)OC)ccc1-c1nc2[nH]nnc2c(=O)[nH]1 [Compound 118, Methyl 2-(3′-ethoxy-4′-(7-oxo-6,7-dihydro-3H-[1,2,3]triazolo[4,5-d]pyrimidin-5-yl)-[1,1′-biphenyl]-2-yl)acetate]
≥ 5.00	≥ 5.00	CCOc1cc(-c2ccccc2CC(=O)O)ccc1-c1nc2[nH]nnc2c(=O)[nH]1 [Compound 119, 2-(3′-Ethoxy-4′-(7-oxo-6,7-dihydro-3H-[1,2,3]triazolo[4,5-d]pyrimidin-5-yl)-[1,1′-biphenyl]-2-yl)acetic acid]
≥ 5.00	≥ 5.00	CCOc1cc(-c2cccc(OCC(=O)O)c2)ccc1-c1nc2[nH]nnc2c(=O)[nH]1 [Compound 121, 2-((3′-Ethoxy-4′-(7-oxo-6,7-dihydro-3H-[1,2,3]triazolo[4,5-d]pyrimidin-5-yl)-[1,1′-biphenyl]-3-yl)oxy)acetic acid]
≥ 5.00	≥ 5.00	CCOc1cc(-c2cc(N)cc(C(=O)OC)c2)ccc1-c1nc2[nH]nnc2c(=O)[nH]1 [Compound 122, Methyl 5-amino-3′-ethoxy-4′-(7-oxo-6,7-dihydro-3H-[1,2,3]triazolo[4,5-d]pyrimidin-5-yl)-[1,1′-biphenyl]-3-carboxylate]

pEC50 (Human GPR35 [1])	pEC50 (Human GPR35 [2])	Structure (SMILES)
≥ 5.00	≥ 5.00	CCOc1cc(-c2cc(N)cc(C(=O)O)c2)ccc1-c1nc2[nH]nnc2c(=O)[nH]1 [Compound 123, 5-amino-3′-ethoxy-4′-(7-oxo-6,7-dihydro-3H-[1,2,3]triazolo[4,5-d]pyrimidin-5-yl)-[1,1′-biphenyl]-3-carboxylic acid]
≥ 5.00	≥ 5.00	CCOc1cc(-c2ccc(C(=O)OC)nc2)ccc1-c1nc2[nH]nnc2c(=O)[nH]1 [Compound 124, Methyl 5-(3-ethoxy-4-(7-oxo-6,7-dihydro-3H-[1,2,3]triazolo[4,5-d]pyrimidin-5-yl)phenyl)picolinate]
≥ 5.00	≥ 5.00	CCOc1cc(-c2ccc(C(=O)O)nc2)ccc1-c1nc2[nH]nnc2c(=O)[nH]1 [Compound 125, 5-(3-Ethoxy-4-(7-oxo-6,7-dihydro-3H-[1,2,3]triazolo[4,5-d]pyrimidin-5-yl)phenyl)picolinic acid]
≥ 5.00	≥ 5.00	CCOC(=O)Cn1cc(-c2ccc(-c3nc4[nH]nnc4c(=O)[nH]3)c(OCC)c2)cn1 [Compound 126, Ethyl 2-(4-(3-ethoxy-4-(7-oxo-6,7-dihydro-3H-[1,2,3]triazolo[4,5-d]pyrimidin-5-yl)phenyl)-1H-pyrazol-1-yl)acetate]
≥ 5.00	≥ 5.00	CCOc1cc(-c2cnn(CC(=O)O)c2)ccc1-c1nc2[nH]nnc2c(=O)[nH]1 [Compound 127, 2-(4-(3-Ethoxy-4-(7-oxo-6,7-dihydro-3H-[1,2,3]triazolo[4,5-d]pyrimidin-5-yl)phenyl)-1H-pyrazol-1-yl)acetic acid]
≥ 5.00	≥ 5.00	CCCOc1cc(-c2cccc(C(=O)O)c2)ccc1-c1nc2[nH]nnc2c(=O)[nH]1 [Compound 128, 4′-(7-Oxo-6,7-dihydro-3H-[1,2,3]triazolo[4,5-d]pyrimidin-5-yl)-3′-propoxy-[1,1′-biphenyl]-3-carboxylic acid]
≥ 5.00	4.30 to 5.00	O=c1[nH]c(-c2ccc(-c3ccccc3)cc2)nc2[nH]nnc12 [Compound 129, 5-([1,1′-biphenyl]-4-yl)-3,6-dihydro-7H-[1,2,3]triazolo[4,5-d]pyrimidin-7-one]
≥ 5.00	≥ 5.00	CCOc1cc(C2CC2)ccc1-c1nc2[nH]nnc2c(=O)[nH]1 [Compound 130, 5-(4-cyclopropyl-2-ethoxyphenyl)-3,6-dihydro-7H-[1,2,3]triazolo[4,5-d]pyrimidin-7-one]
≥ 5.00	≥ 5.00	CCOc1cc(-c2cc[nH]n2)ccc1-c1nc2nn[nH]c2c(=O)[nH]1 [Compound 131, 5-(2-Ethoxy-4-(1H-pyrazol-3-yl)phenyl)-1,6-dihydro-7H-[1,2,3]triazolo[4,5-d]pyrimidin-7-one]
≥ 5.00	≥ 5.00	CCOc1cc(C(=O)O)ccc1-c1nc2[nH]nnc2c(=O)[nH]1 [Compound 132, 3-Ethoxy-4-(7-oxo-6,7-dihydro-3H-[1,2,3]triazolo[4,5-d]pyrimidin-5-yl)benzoic acid]
≥ 5.00	4.30 to 5.00	CCOc1cc(C(=O)N2CCCC2)ccc1-c1nc2[nH]nnc2c(=O)[nH]1 [Compound 133, 5-(2-Ethoxy-4-(pyrrolidine-1-carbonyl)phenyl)-3,6-dihydro-7H-[1,2,3]triazolo[4,5-d]pyrimidin-7-one]
≥ 5.00	≥ 5.00	CCOc1cc(C(=O)Nc2ccccc2)ccc1-c1nc2[nH]nnc2c(=O)[nH]1 [Compound 134, 3-Ethoxy-4-(7-oxo-6,7-dihydro-3H-[1,2,3]triazolo[4,5-d]pyrimidin-5-yl)-N-phenylbenzamide]
≥ 5.00	≥ 5.00	CCOc1cc(C(N)=O)ccc1-c1nc2[nH]nnc2c(=O)[nH]1 [Compound 135, 3-Ethoxy-4-(7-oxo-6,7-dihydro-3H-[1,2,3]triazolo[4,5-d]pyrimidin-5-yl)benzamide]
≥ 5.00	4.30 to 5.00	CCOc1cc(C(=O)NC2CCCC2)ccc1-c1nc2nn[nH]c2c(=O)[nH]1 [Compound 136, N-Cyclopentyl-3-ethoxy-4-(7-oxo-6,7-dihydro-3H-[1,2,3]triazolo[4,5-d]pyrimidin-5-yl)benzamide]
≥ 5.00	≥ 5.00	CCOc1cc(N)ccc1-c1nc2[nH]nnc2c(=O)[nH]1 [Compound 137, 5-(4-amino-2-ethoxyphenyl)-3,6-dihydro-7H-[1,2,3]triazolo[4,5-d]pyrimidin-7-one]
